Test results taken from patent US20260297060A1, “COMPOUNDS FOR THE DEGRADATION OF MUTANT BRAF” (C4 THERAPEUTICS, INC., priority 2023, published 2026).
Read-outs that look alike come from different tables or passages of the source.

Assays:
BRAF V600E = target: T1, BRAF V600E (Homo sapiens, UniProt P15056+Q96SW2, V600E); experiment: BRAF V600E HiBiT Degradation Assay; type: cell-based
T1 construct: knock-in of the HiBiT tag to the endogenous BRAF V600E locus; host or cells: A375.10 (A375 clonal line, CRISPR HiBiT knock-in at the endogenous BRAF V600E locus)
In short: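 Endogenous HiBiT knock-in on BRAF V600E in A375 cells (clone A375.10); 11-point half-log series, top 10 μM, 2, 6 or 24 h at 37° C. Lytic HiBiT luminescence, background-subtracted, normalized to DMSO; 4-parameter fit gives DC50, Emax (residual protein) and IP (inflection point).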

A375-NRAS^Q61K cells = experiment: CTGlo Cell Viability Assay, A375-NRAS^Q61K (A375.11) cells, 96 hours; type: cell-based, human; details: A375.11 (A375-NRAS^Q61K) cells
In short: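 Viability as CellTiter-Glo ATP luminescence after 96 h compound exposure at 37 °C; A375.11 (BRAF V600E/NRAS Q61K) cells at 250/well, top final concentration 10 μM in half-log steps. Signal was background-corrected and set relative to DMSO controls. A 4-parameter logistic fit gave GI50 (50% crossing) and Emax.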

[1] = A375.10 cells, BRAF V600E, 2 hours, inflection point, read-out: HiBiT-Degradation A375.10 BRAF 2 hours IP
[2] = A375.10 cells, BRAF V600E, 2 hours, read-out: HiBiT-Degradation A375.10 BRAF 2 hours DC50
[3] = A375.10 cells, BRAF V600E, 2 hours, residual protein remaining
[4] = A375.10 cells, BRAF V600E, 6 hours, inflection point, read-out: HiBiT-Degradation A375.10 BRAF 6 hours IP
[5] = A375.10 cells, BRAF V600E, 6 hours, read-out: HiBiT-Degradation A375.10 BRAF 6 hours DC50
[6] = A375.10 cells, HiBiT, BRAF V600E, 24 hours, read-out: HiBiT-Degradation A375.10 BRAF 24 hours DC50
[7] = A375.10 cells, HiBiT, BRAF V600E, 24 hours, read-out: HiBiT-Degradation A375.10 BRAF 24 hours IP
[8] = A375.10 cells, BRAF V600E, 6 hours, residual protein remaining
[9] = A375.10 cells, HiBiT, BRAF V600E, 24 hours

T1 sequence (P15056 whole entry V600E): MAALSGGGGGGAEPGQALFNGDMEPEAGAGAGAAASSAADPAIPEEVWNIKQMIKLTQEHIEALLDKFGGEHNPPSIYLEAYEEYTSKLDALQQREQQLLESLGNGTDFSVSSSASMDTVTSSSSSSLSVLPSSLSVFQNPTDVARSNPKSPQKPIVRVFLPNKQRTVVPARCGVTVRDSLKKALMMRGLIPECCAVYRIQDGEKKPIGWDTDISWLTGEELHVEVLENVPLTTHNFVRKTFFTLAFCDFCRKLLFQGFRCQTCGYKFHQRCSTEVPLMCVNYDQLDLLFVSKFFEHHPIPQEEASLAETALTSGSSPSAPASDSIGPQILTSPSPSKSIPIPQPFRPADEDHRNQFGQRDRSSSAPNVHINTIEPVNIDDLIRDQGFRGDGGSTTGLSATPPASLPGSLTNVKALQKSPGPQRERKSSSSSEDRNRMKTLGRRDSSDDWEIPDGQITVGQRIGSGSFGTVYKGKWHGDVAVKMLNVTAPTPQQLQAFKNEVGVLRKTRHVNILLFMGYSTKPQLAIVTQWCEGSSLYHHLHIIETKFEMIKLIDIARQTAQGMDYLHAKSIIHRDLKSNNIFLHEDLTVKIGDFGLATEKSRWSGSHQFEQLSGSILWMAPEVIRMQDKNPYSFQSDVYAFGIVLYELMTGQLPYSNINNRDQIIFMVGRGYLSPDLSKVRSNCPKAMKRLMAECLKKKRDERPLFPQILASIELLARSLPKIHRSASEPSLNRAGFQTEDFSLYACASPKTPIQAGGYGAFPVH
T1 sequence (Q96SW2 whole entry): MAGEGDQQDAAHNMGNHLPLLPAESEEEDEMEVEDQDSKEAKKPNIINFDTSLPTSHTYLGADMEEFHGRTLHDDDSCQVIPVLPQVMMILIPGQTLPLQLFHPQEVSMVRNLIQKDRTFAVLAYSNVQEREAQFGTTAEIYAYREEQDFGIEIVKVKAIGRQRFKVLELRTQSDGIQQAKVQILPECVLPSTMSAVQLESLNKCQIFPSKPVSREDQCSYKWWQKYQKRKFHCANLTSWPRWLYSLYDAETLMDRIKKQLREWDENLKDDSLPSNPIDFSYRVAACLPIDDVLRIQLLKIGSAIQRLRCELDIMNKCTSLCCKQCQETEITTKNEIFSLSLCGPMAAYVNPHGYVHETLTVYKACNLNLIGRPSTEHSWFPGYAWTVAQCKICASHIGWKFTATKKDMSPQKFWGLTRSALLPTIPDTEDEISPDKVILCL
T1 sequence (Q16531 whole entry partner): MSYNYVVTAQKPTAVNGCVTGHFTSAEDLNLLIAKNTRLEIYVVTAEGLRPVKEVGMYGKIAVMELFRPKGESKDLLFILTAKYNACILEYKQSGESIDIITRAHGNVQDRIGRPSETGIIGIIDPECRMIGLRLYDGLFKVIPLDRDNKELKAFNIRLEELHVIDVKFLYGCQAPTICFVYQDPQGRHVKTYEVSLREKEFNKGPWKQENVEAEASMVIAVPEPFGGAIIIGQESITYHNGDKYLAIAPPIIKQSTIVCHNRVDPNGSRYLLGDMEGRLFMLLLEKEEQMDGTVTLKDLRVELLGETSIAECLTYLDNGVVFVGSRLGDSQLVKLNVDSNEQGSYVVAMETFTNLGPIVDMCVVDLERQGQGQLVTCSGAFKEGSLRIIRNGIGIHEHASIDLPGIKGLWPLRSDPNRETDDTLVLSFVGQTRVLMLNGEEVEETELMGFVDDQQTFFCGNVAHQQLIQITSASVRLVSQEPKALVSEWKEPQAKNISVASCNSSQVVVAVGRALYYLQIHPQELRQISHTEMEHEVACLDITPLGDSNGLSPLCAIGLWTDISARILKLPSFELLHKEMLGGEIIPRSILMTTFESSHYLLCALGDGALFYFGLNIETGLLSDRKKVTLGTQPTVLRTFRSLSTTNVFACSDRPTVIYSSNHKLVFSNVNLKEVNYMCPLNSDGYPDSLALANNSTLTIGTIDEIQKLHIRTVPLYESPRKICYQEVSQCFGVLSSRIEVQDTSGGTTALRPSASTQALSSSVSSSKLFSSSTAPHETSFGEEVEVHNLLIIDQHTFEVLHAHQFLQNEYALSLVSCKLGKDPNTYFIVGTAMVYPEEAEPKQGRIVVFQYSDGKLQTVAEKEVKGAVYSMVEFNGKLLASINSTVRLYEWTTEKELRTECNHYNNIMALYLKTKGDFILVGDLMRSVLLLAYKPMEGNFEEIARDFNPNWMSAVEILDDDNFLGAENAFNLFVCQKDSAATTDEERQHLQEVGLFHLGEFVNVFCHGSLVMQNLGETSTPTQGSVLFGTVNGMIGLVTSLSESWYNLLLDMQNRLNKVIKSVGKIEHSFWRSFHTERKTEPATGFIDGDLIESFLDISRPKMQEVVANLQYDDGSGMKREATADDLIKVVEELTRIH

SMILES | DC50 (BRAF V600E; [1]) [µM] | DC50 (BRAF V600E; [2]) [µM] | HiBiT-Degradation A375.10 BRAF 2 hours Emax (BRAF V600E; [3]) | GI50 (A375-NRAS^Q61K cells) [µM] | Emax (BRAF V600E; A375.10 cells, BRAF V600E, 2 hours, residual protein remaining, read-out: HiBiT-Degradation A375.10 BRAF 2 hours Emax) [%] | DC50 (BRAF V600E; [4]) [µM] | DC50 (BRAF V600E; [5]) [µM] | Emax (BRAF V600E; A375.10 cells, BRAF V600E, 6 hours, residual protein remaining, read-out: HiBiT-Degradation A375.10 BRAF 6 hours Emax) [%] | DC50 (BRAF V600E; [6]) [µM] | Emax (BRAF V600E; A375.10 cells, HiBiT, BRAF V600E, 24 hours, read-out: HiBiT-Degradation A375.10 BRAF 24 hours Emax) [%] | DC50 (BRAF V600E; [7]) [µM] | HiBiT-Degradation A375.10 BRAF 6 hours Emax (BRAF V600E; [8]) | HiBiT-Degradation A375.10 BRAF 24 hours Emax (BRAF V600E; [9]) | HiBiT-Degradation A375.10 BRAF 2 hours Emax (BRAF V600E) | CTGlo A375.11 96 hours Emax (A375-NRAS^Q61K cells; lowest % viability achieved) | Emax (A375-NRAS^Q61K cells; Homo sapiens, 96 h, lowest % viability achieved) [%]
CCN(C)S(=O)(=O)Nc1ccc(F)c(Nc2ccc3ncn([C@H]4COC5(CCN(C6CCC(c7cc8c(cc7F)c(N7CCC(=O)NC7=O)nn8C)CC6)CC5)C4)c(=O)c3c2)c1C#N (single isomer, unassigned) [Compound 65] | < 1 | 1 to 10 | ** (<90% and >50%) | > 10 | – | – | – | – | – | – | – | – | – | – | ** (<90% and >50%) | –
CCN(C)S(=O)(=O)Nc1ccc(F)c(Nc2ccc3ncn([C@@H]4COC5(CCN(C6CCC(c7cc8c(cc7F)c(N7CCC(=O)NC7=O)nn8C)CC6)CC5)C4)c(=O)c3c2F)c1C#N (single isomer, unassigned) [Compound 68] | < 1 | < 1 | – | > 10 | < 50 | – | – | – | – | – | – | – | – | – | – | < 50
CCN(C)S(=O)(=O)Nc1ccc(F)c(Nc2ccc3ncn([C@@H]4COC5(CCN(C6CCC(c7cc8c(cc7F)c(N7CCC(=O)NC7=O)nn8C)CC6)CC5)C4)c(=O)c3c2F)c1C#N (single isomer, unassigned) [Compound 69] | < 1 | < 1 | *** (<=50%) | < 1 | – | < 1 | < 1 | < 50 | < 1 | < 50 | < 1 | – | – | – | *** (<=50%) | –
CN(CCO)S(=O)(=O)Nc1ccc(F)c(Oc2ccc3ncn(C4CC5(CCN(C6CCC(c7ccc(NC8CCC(=O)NC8=O)cc7F)CC6)CC5)C4)c(=O)c3c2)c1C#N (single isomer, unassigned) [Compound 80, 6-[2-cyano-6-fluoro-3-[[2-hydroxyethyl(methyl)sulfamoyl]amino]phenoxy]-3-[7-[4-[4-[(2,6-dioxo-3-piperidyl)amino]-2-fluoro-phenyl]cyclohexyl]-7-azaspiro[3.5]nonan-2-yl]-4-oxo-quinazoline] | < 1 | > 10 | ** (<90% and >50%) | > 10 | – | – | – | – | – | – | – | – | – | – | ** (<90% and >50%) | –
CN(CCO)S(=O)(=O)Nc1ccc(F)c(Oc2ccc3ncn(C4CC5(CCN(C6CCC(c7cc8c(cc7F)c(N7CCC(=O)NC7=O)nn8C)CC6)CC5)C4)c(=O)c3c2)c1C#N (single isomer, unassigned) [Compound 82, 6-[2-cyano-6-fluoro-3-[[2-hydroxyethyl(methyl)sulfamoyl]amino]phenoxy]-3-[7-[4-[3-(2,4-dioxohexahydropyrimidin-1-yl)-5-fluoro-1-methyl-indazol-6-yl]cyclohexyl]-7-azaspiro[3.5]nonan-2-yl]-4-oxo-quinazoline] | < 1 | 1 to 10 | ** (<90% and >50%) | 1 to 10 | – | < 1 | < 1 | – | < 1 | – | < 1 | *** (<=50%) | *** (<=50%) | – | ** (<90% and >50%) | –
CCN(C)S(=O)(=O)Nc1ccc(F)c(Oc2ccc3ncn(C4CC5(CCN(C6CCC(c7cc8c(cc7F)c(N7CCC(=O)NC7=O)nn8C)CC6F)CC5)C4)c(=O)c3c2)c1C#N (single isomer, unassigned) [Compound 84, 6-[2-cyano-3-[[ethyl(methyl)sulfamoyl]amino]-6-fluoro-phenoxy]-3-[7-[4-[3-(2,4-dioxohexahydropyrimidin-1-yl)-5-fluoro-1-methyl-indazol-6-yl]-2-fluoro-cyclohexyl]-7-azaspiro[3.5]nonan-2-yl]-4-oxo-quinazoline] | < 1 | < 1 | – | 1 to 10 | – | < 1 | < 1 | – | < 1 | – | < 1 | *** (<=50%) | *** (<=50%) | *** (<=50%) | ** (<90% and >50%) | –
CO[C@@H]1CCN(S(=O)(=O)Nc2ccc(F)c(Oc3ccc4ncn(C5CC6(CCN(C7CCC(c8cc9c(cc8F)c(N8CCC(=O)NC8=O)nn9C)CC7)CC6)C5)c(=O)c4c3)c2C#N)C1 (single isomer, unassigned) [Compound 102] | < 1 | < 1 | *** (<=50%) | < 1 | – | < 1 | < 1 | – | < 1 | – | < 1 | *** (<=50%) | *** (<=50%) | – | *** (<=50%) | –

Further lines, with some results ahead:

DC50 (BRAF V600E; [1]) [µM] | DC50 (BRAF V600E; [2]) [µM] | HiBiT-Degradation A375.10 BRAF 2 hours Emax (BRAF V600E; [3]) | GI50 (A375-NRAS^Q61K cells) [µM] | Emax (BRAF V600E; A375.10 cells, BRAF V600E, 2 hours, residual protein remaining, read-out: HiBiT-Degradation A375.10 BRAF 2 hours Emax) [%] | DC50 (BRAF V600E; [4]) [µM] | DC50 (BRAF V600E; [5]) [µM] | Emax (BRAF V600E; A375.10 cells, BRAF V600E, 6 hours, residual protein remaining, read-out: HiBiT-Degradation A375.10 BRAF 6 hours Emax) [%] | DC50 (BRAF V600E; [6]) [µM] | Emax (BRAF V600E; A375.10 cells, HiBiT, BRAF V600E, 24 hours, read-out: HiBiT-Degradation A375.10 BRAF 24 hours Emax) [%] | DC50 (BRAF V600E; [7]) [µM] | HiBiT-Degradation A375.10 BRAF 6 hours Emax (BRAF V600E; [8]) | HiBiT-Degradation A375.10 BRAF 24 hours Emax (BRAF V600E; [9]) | HiBiT-Degradation A375.10 BRAF 2 hours Emax (BRAF V600E) | SMILES | CTGlo A375.11 96 hours Emax (A375-NRAS^Q61K cells; lowest % viability achieved) | Emax (A375-NRAS^Q61K cells; Homo sapiens, 96 h, lowest % viability achieved) [%]
< 1 | < 1 | – | < 1 | – | < 1 | < 1 | – | < 1 | – | < 1 | *** (<=50%) | *** (<=50%) | *** (<=50%) | Cn1nc(N2CCC(=O)NC2=O)c2cc(F)c(C3CCC(N4CCC5(CC4)CC(n4cnc6ccc(Oc7c(F)ccc(NS(=O)(=O)C8CCCC8)c7C#N)cc6c4=O)C5)CC3)cc21 (single isomer, unassigned) [Compound 94, N-[2-cyano-3-[3-[7-[4-[3-(2,4-dioxohexahydropyrimidin-1-yl)-5-fluoro-1-methyl-indazol-6-yl]cyclohexyl]-7-azaspiro[3.5]nonan-2-yl]-4-oxo-quinazolin-6-yl]oxy-4-fluoro-phenyl]cyclopentanesulfonamide] | *** (<=50%) | –
< 1 | < 1 | *** (<=50%) | < 1 | – | < 1 | < 1 | – | < 1 | – | < 1 | *** (<=50%) | *** (<=50%) | – | CC(C)S(=O)(=O)Nc1ccc(F)c(Oc2ccc3ncn(C4CC5(CCN(C6CCC(c7cc8c(cc7F)c(N7CCC(=O)NC7=O)nn8C)CC6)CC5)C4)c(=O)c3c2)c1C#N (single isomer, unassigned) [Compound 96, N-[2-cyano-3-[3-[7-[4-[3-(2,4-dioxohexahydropyrimidin-1-yl)-5-fluoro-1-methyl-indazol-6-yl]cyclohexyl]-7-azaspiro[3.5]nonan-2-yl]-4-oxo-quinazolin-6-yl]oxy-4-fluoro-phenyl]propane-2-sulfonamide] | – | –
< 1 | < 1 | *** (<=50%) | 1 to 10 | – | < 1 | < 1 | – | < 1 | – | < 1 | *** (<=50%) | *** (<=50%) | – | CO[C@H]1CCN(S(=O)(=O)Nc2ccc(F)c(Oc3ccc4ncn(C5CC6(CCN(C7CCC(c8cc9c(cc8F)c(N8CCC(=O)NC8=O)nn9C)CC7)CC6)C5)c(=O)c4c3)c2C#N)C1 (single isomer, unassigned) [Compound 104] | ** (<90% and >50%) | –
